Data: patent US11723903B2, “Treatment of schizophrenia” (Vanda Pharmaceuticals Inc., priority 2015, dated 2023)

Legend:
[1] = prescribing information approved as of the priority date; cited from earlier work
[2] = post-marketing experience (post-approval use): adverse reactions in treated patients; assay type: in vivo; conditions: for adverse reactions associated with treatment, identified during post-approval use: reported voluntarily from a population of uncertain size, frequency and causality not established
Text: This invention comprises the discovery through post-marketing experience that treatment of patients with iloperidone has been associated with specific adverse reactions.
Without limiting this invention to a particular mechanism of action, the enumerated reactions may be hypersensitivity reactions. An aspect of this invention therefore comprises amending the contraindications section and/or the adverse events section of the iloperidone package insert, i.e., prescribing information, to read more or less as follows: • 4 CONTRAINDICATIONS • FANAPT is contraindicated in individuals with a known hypersensitivity reaction to the product. […] Because these reactions were reported voluntarily from a population of uncertain size, it is not possible to reliably estimate their frequency or establish a causal relationship to drug exposure.

COc1cc(C(C)=O)ccc1OCCCN1CCC(c2noc3cc(F)ccc23)CC1 [iloperidone]
known hypersensitivity reactions to the product (Contraindications section) [1]: pruritus and urticaria | relative frequency among the enumerated reactions [2]: rash was the most common followed by swollen tongue and swollen lip | adverse reactions associated with treatment, identified during post-approval use [2]: anaphylaxis, angioedema, throat tightness, oropharyngeal swelling, swelling of the face, lip, mouth, and tongue; urticaria, rash, and pruritus | adverse reactions associated with treatment, identified during post-approval use ([2]; listed as FANAPT): retrograde ejaculation and hypersensitivity reactions (including anaphylaxis, angioedema, throat tightness, oropharyngeal swelling, swelling of the face, lip, mouth, and/or tongue; urticaria, rash, and pruritus)
